Test systems include A498; A549; DU-145; EKVX; HCT-116; HCT-15; HT-29; IGROV-1; MDA-MB-435; MOLT-4; Malme-3M; NCI-H226; NCI-H23; NCI-H460; OVCAR-4; OVCAR-8; SF-268; SK-MEL-28; SK-OV-3; UACC-257.
Test in all cases: DTP human tumour cell line panel, 48 h

The values below come from ChEMBL document CHEMBL1201862, “PubChem BioAssay data set” (2004).

One may read the GI50 as the concentration that inhibits growth by half.

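Exposure lasted 48 hours, with cells grown in 96-well plates and compounds tested at five concentrations. Here, GI50 denotes the concentration required for 50% inhibition of growth.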 Active and inactive are the calls of the source. No stated cut-off is given here; in the data, active = GI50 up to about 1.1 µM and inactive = higher.

In the case of `CC(=O)O[C@@H]1C2=C(C)C=C(O2)[C@H]2O[C@]2(C)C[C@H]2C=C(C(=O)O2)[C@H](OC(C)=O)CC1[C@@]1(C)CO1` (stereo partly drawn), the GI50 in the experiment on A498 was > 100 µM (inactive); in the experiment with A549 it was 45.3 µM (inactive); in the experiment on DU-145 it was 31.3 µM (inactive); with EKVX, 26.2 µM (inactive); in the experiment with HCT-116, 15.1 µM (inactive); in the experiment with HCT-15, 22 µM. Moreover, the GI50 in the experiment on HT-29 was 25.4 µM (inactive); with IGROV-1, 14.3 µM (inactive); in the experiment with MDA-MB-435 it was 23.5 µM (inactive); in the experiment with MOLT-4 it was 9.64 µM (inactive); in the experiment with Malme-3M it was 17.5 µM (inactive); in the experiment with NCI-H226, > 100 µM (inactive). In addition, the GI50 with NCI-H23 is 28.9 µM (inactive); in the experiment with NCI-H460 it was 37 µM (inactive); with OVCAR-4, 27.7 µM (inactive); with OVCAR-8, 35.4 µM (inactive); in the experiment with SF-268, 42 µM (inactive); in the experiment on SK-MEL-28, 19.4 µM (inactive). In addition, the GI50 with SK-OV-3 is > 100 µM (inactive); in the experiment with UACC-257, 28.1 µM (inactive).
Take `CC(C)(C)NC(=O)/C(=C\Sc1ccccc1)c1ccccc1`: the GI50 was > 100 µM (inactive) in the experiment with A498; > 100 µM (inactive) in the experiment on A549; > 100 µM (inactive) with DU-145; > 74.6 µM (inactive) with EKVX; > 65.6 µM (inactive) with HCT-116; over 48.5 µM in the experiment on HCT-15. Further, the GI50 in the experiment with HT-29 is > 100 µM (inactive); with IGROV-1, > 100 µM (inactive); in the experiment on MDA-MB-435 it was > 82.8 µM (inactive); in the experiment with MOLT-4, 23.2 µM (inactive); in the experiment on Malme-3M, > 100 µM (inactive); in the experiment on NCI-H226, > 72.1 µM (inactive). For the same compound, the GI50 in the experiment with NCI-H23 is > 41.7 µM (inactive); with NCI-H460, > 100 µM (inactive); in the experiment with OVCAR-4, > 68.4 µM (inactive); in the experiment on OVCAR-8, > 60 µM (inactive); with SK-MEL-28, > 100 µM (inactive); in the experiment on SK-OV-3 it was > 100 µM (inactive). Also, in the experiment on UACC-257, the GI50 is > 100 µM (inactive).
Turning to `CCOC(=O)C(NC(=O)CC)(N1CCN(c2cc3c(cc2F)c(=O)c(C(=O)O)cn3C2CC2)CC1)C(F)(F)F` (stereo not drawn), the GI50 in the experiment on A498 is > 100 µM (inactive); in the experiment with A549, > 100 µM (inactive); in the experiment with DU-145, > 100 µM (inactive); with EKVX, > 100 µM (inactive); in the experiment with HCT-116 it was > 100 µM (inactive); in the experiment on HCT-15 it was over 100 µM. For the same compound, the GI50 with HT-29, in the experiment on IGROV-1, in the experiment with MDA-MB-435, with MOLT-4, in the experiment on Malme-3M and in the experiment on NCI-H226 was > 100 µM (inactive) throughout. Besides, the GI50 with NCI-H23, in the experiment on NCI-H460, in the experiment on OVCAR-4, with OVCAR-8, in the experiment on SF-268 and with SK-MEL-28 was > 100 µM (inactive) throughout. In addition, the GI50 in the experiment on SK-OV-3 and in the experiment with UACC-257 was > 100 µM (inactive) each time.
On to `Cc1ccc(S(=O)(=O)NNC(=S)Nc2cccc3ccccc23)cc1`, for which the GI50 was 39.1 µM (inactive) with A498; 49.4 µM (inactive) in the experiment on A549; 69 µM (inactive) in the experiment with DU-145; 38.3 µM (inactive) with EKVX; 55.2 µM (inactive) in the experiment with HCT-116; 67.5 µM in the experiment on HCT-15. For the same compound, the GI50 with HT-29 is 56.5 µM (inactive); with IGROV-1, 61.5 µM (inactive); with MDA-MB-435, 41.5 µM (inactive); in the experiment with MOLT-4, 38.1 µM (inactive); in the experiment with Malme-3M it was 33.3 µM (inactive); in the experiment with NCI-H226, 29.4 µM (inactive). In addition, the GI50 in the experiment on NCI-H23 was 32.3 µM (inactive); in the experiment on NCI-H460 it was > 100 µM (inactive); with OVCAR-4 it was 22.3 µM (inactive); in the experiment on OVCAR-8, 37.5 µM (inactive); in the experiment on SF-268, 70.6 µM (inactive); in the experiment on SK-MEL-28, 54.1 µM (inactive). Further, the results for the GI50 in the experiment on SK-OV-3 and with UACC-257 were 43.3 µM (inactive) and 13.8 µM (inactive), respectively.
Take `Clc1ccccc1-c1nn2c(CCCCCCCCc3nnc4sc(-c5ccccc5Cl)nn34)nnc2s1`: the GI50 in the experiment on A498 is > 100 µM (inactive); in the experiment with A549 it was > 100 µM (inactive); with DU-145 it was > 100 µM (inactive); in the experiment with EKVX, > 100 µM (inactive); with HCT-116 it was > 100 µM (inactive); in the experiment with HCT-15, over 100 µM. For the same compound, the GI50 in the experiment with HT-29 is 52.1 µM (inactive); in the experiment on MDA-MB-435, > 100 µM (inactive); in the experiment with MOLT-4, 16.5 µM (inactive); in the experiment on Malme-3M it was > 100 µM (inactive); in the experiment on NCI-H226, > 100 µM (inactive); in the experiment on NCI-H23 it was > 100 µM (inactive). Further, the GI50 in the experiment with NCI-H460, in the experiment with OVCAR-4, in the experiment on OVCAR-8, in the experiment with SF-268, in the experiment on SK-MEL-28 and in the experiment on SK-OV-3 was > 100 µM (inactive) each time. The GI50 with UACC-257 is > 100 µM (inactive).
With `O=C1C(Cl)C2(CC(/C=C/c3ccccc3Cl)=NN2c2cccc(S(=O)(=O)O)c2)N1c1nc2ccccc2s1` (stereo not drawn), the GI50 with A498 was 66.7 µM (inactive); in the experiment on A549, 72.1 µM (inactive); with DU-145, 21.2 µM (inactive); in the experiment on EKVX it was 49 µM (inactive); in the experiment on HCT-116, 49.7 µM (inactive); in the experiment with HCT-15, 15.8 µM. For the same compound, the GI50 in the experiment on HT-29 was 98.2 µM (inactive); with IGROV-1, 26.9 µM (inactive); in the experiment on MDA-MB-435, 1.5 µM (inactive); with MOLT-4, 10.3 µM (inactive); with Malme-3M, 27 µM (inactive); in the experiment on NCI-H226, 30.2 µM (inactive). Moreover, the GI50 with NCI-H23 is 33.6 µM (inactive); in the experiment with NCI-H460, 63.5 µM (inactive); with OVCAR-4 it was 29.1 µM (inactive); in the experiment on OVCAR-8 it was 26.5 µM (inactive); in the experiment on SF-268, 66.4 µM (inactive); with SK-MEL-28, > 100 µM (inactive). Moreover, the GI50 in the experiment on UACC-257 is 66.8 µM (inactive).
For the compound `N=c1oc2ccccc2cc1C(=O)Nc1cccc2ccccc12`, the GI50 was > 100 µM (inactive) with A498; > 100 µM (inactive) in the experiment with A549; > 100 µM (inactive) with DU-145; > 100 µM (inactive) in the experiment with HCT-116; over 100 µM with HCT-15; > 100 µM (inactive) in the experiment on HT-29. Also, the GI50 was > 100 µM (inactive) in the experiment on IGROV-1; > 100 µM (inactive) in the experiment on MDA-MB-435; > 100 µM (inactive) in the experiment with MOLT-4; 56.6 µM (inactive) in the experiment on Malme-3M; > 100 µM (inactive) with NCI-H226; > 100 µM (inactive) with NCI-H23. For the same compound, the GI50 in the experiment on NCI-H460, with OVCAR-4, with OVCAR-8, with SF-268, in the experiment with SK-MEL-28 and in the experiment on SK-OV-3 was > 100 µM (inactive) in each case. The GI50 in the experiment on UACC-257 is > 100 µM (inactive).
Take `CC(C)(CO)CNc1cc(Cl)nc(N)n1`: the GI50 in the experiment on A498 is > 100 µM (inactive); in the experiment on A549, > 100 µM (inactive); in the experiment with DU-145, > 100 µM (inactive); with EKVX it was > 100 µM (inactive); in the experiment with HCT-116, > 100 µM (inactive); in the experiment on HCT-15, over 100 µM. In addition, the GI50 with HT-29, in the experiment with IGROV-1, in the experiment with MDA-MB-435, in the experiment on MOLT-4, in the experiment with Malme-3M and with NCI-H226 was > 100 µM (inactive) each time. Besides, the GI50 with NCI-H23, in the experiment with NCI-H460, in the experiment on OVCAR-4, in the experiment on OVCAR-8, in the experiment with SF-268 and with SK-MEL-28 was > 100 µM (inactive) each time. Besides, in the experiment with UACC-257, the GI50 was > 100 µM (inactive).
For `COc1cc(/C=C/C(=O)C2(C(=O)/C=C/c3cc(OC)c(OC)c(OC)c3)CCCCC2)cc(OC)c1OC`, the GI50 is > 100 µM (inactive) in the experiment with A498; > 100 µM (inactive) in the experiment on A549; 32.7 µM (inactive) in the experiment with DU-145; 27.5 µM (inactive) in the experiment on EKVX; 31.1 µM (inactive) in the experiment on HCT-116; 33.3 µM in the experiment with HCT-15. For the same compound, the GI50 with HT-29 is 35.7 µM (inactive); with IGROV-1, 27.4 µM (inactive); in the experiment on MDA-MB-435 it was 21.5 µM (inactive); in the experiment with Malme-3M it was 37.6 µM (inactive); with NCI-H226, 32.7 µM (inactive); in the experiment with NCI-H23, 53.3 µM (inactive). Moreover, the GI50 with NCI-H460 is 80.7 µM (inactive); with OVCAR-4, 46.6 µM (inactive); in the experiment with OVCAR-8, 24.1 µM (inactive); in the experiment on SF-268, 40.5 µM (inactive); in the experiment with SK-MEL-28, 46.3 µM (inactive); with SK-OV-3, 68.9 µM (inactive). Also, in the experiment with UACC-257, the GI50 is 76.9 µM (inactive).
As for `CN(C)/N=C1\C=C2CC[C@H](O[Si](C)(C)C(C)(C)C)[C@@]2(C)CC1`, the GI50 was 17.8 µM (inactive) in the experiment on A498; 19.5 µM (inactive) with A549; 15.8 µM (inactive) with DU-145; 21.7 µM (inactive) in the experiment on EKVX; 17.6 µM in the experiment with HCT-15; 19 µM (inactive) with HT-29. For the same compound, the GI50 was 21.7 µM (inactive) in the experiment with IGROV-1; 16.4 µM (inactive) in the experiment with MDA-MB-435; 12.9 µM (inactive) with MOLT-4; 15.6 µM (inactive) in the experiment on Malme-3M; 20.3 µM (inactive) in the experiment with NCI-H226; 23.2 µM (inactive) with NCI-H23. Also, the GI50 in the experiment on NCI-H460 is 17.3 µM (inactive); in the experiment with OVCAR-4, 14.9 µM (inactive); with OVCAR-8, 16.9 µM (inactive); in the experiment on SF-268, 19.7 µM (inactive); in the experiment with SK-MEL-28 it was 15.9 µM (inactive); in the experiment on SK-OV-3, 24.9 µM (inactive). Also, in the experiment on UACC-257, the GI50 is 16.7 µM (inactive).
